# Laboratory results taken from patent US12364709B2, “Bioavailable poly amines” (AMINEX THERAPEUTICS, INC., priority 2016, dated 2025).
# Like-named read-outs stand apart in the source and are kept apart here.
# Test: 28-day repeat-dose toxicity study, toxicokinetics of AMXT 1501 dicaprate
# Format: in vivo, beagle dogs
# Conditions: both sexes, beagle, dog, plasma, po
# Method: AMXT 1501 PK parameters were calculated for all AMXT 1501 dicaprate-dosed animals for the first dose (Day 1) and last dose (Day 28).
structure (smiles),measurement,setting,value
CCCCCCCCCCCCCCCC(=O)NCCCC[C@@H](N)C(=O)NCCCNCCCCNCCCN [AMXT 1501 dicaprate],AUC(0-t),"8 mg/kg/day, 8 mg/kg/day PO, DFMO 0, Day 1, M+F combined, read-out: AUC0-24 hr Median",1500 ng·h/mL
same,Cmax,"8 mg/kg/day, 8 mg/kg/day PO, DFMO 0, Day 1, M+F combined, read-out: Cmax Mean",95.6 ng/mL
same,Cmax,"8 mg/kg/day, 8 mg/kg/day PO, DFMO 0, Day 1, M+F combined, read-out: Cmax Median",115 ng/mL
same,Tmax,"8 mg/kg/day, 8 mg/kg/day PO, DFMO 0, Day 1, M+F combined, read-out: Tmax Mean",5.33 h
same,Tmax,"8 mg/kg/day, 8 mg/kg/day PO, DFMO 0, Day 1, M+F combined, read-out: Tmax Median",6 h
same,AUC(0-t),"8 mg/kg/day, 8 mg/kg/day PO, DFMO 0, Day 28, M+F combined, read-out: AUC0-24 hr Mean",2210 ng·h/mL
same,AUC(0-t),"8 mg/kg/day, 8 mg/kg/day PO, DFMO 0, Day 28, M+F combined, read-out: AUC0-24 hr Median",1690 ng·h/mL
same,AUC(0-t),"8 mg/kg/day, 8 mg/kg/day PO, DFMO 0, Day 28, M+F combined, read-out: AUC0-t Mean",3390 ng·h/mL
same,AUC(0-t),"8 mg/kg/day, 8 mg/kg/day PO, DFMO 0, Day 28, M+F combined, read-out: AUC0-t Median",1900 ng·h/mL
same,AUC(0-inf),"8 mg/kg/day, 8 mg/kg/day PO, DFMO 0, Day 28, M+F combined, read-out: AUC0-∞ Mean",3440 ng·h/mL
same,AUC(0-inf),"8 mg/kg/day, 8 mg/kg/day PO, DFMO 0, Day 28, M+F combined, read-out: AUC0-∞ Median",1930 ng·h/mL
same,Cmax,"8 mg/kg/day, 8 mg/kg/day PO, DFMO 0, Day 28, M+F combined, read-out: Cmax Mean",153 ng/mL
same,Cmax,"8 mg/kg/day, 8 mg/kg/day PO, DFMO 0, Day 28, M+F combined, read-out: Cmax Median",127 ng/mL
same,Tmax,"8 mg/kg/day, 8 mg/kg/day PO, DFMO 0, Day 28, M+F combined, read-out: Tmax Mean",4.6 h
same,Tmax,"8 mg/kg/day, 8 mg/kg/day PO, DFMO 0, Day 28, M+F combined, read-out: Tmax Median",6 h
same,half-life,"8 mg/kg/day, 8 mg/kg/day PO, DFMO 0, Day 28, M+F combined, read-out: t1/2 Mean (converted)",19.7 h
same,half-life,"8 mg/kg/day, 8 mg/kg/day PO, DFMO 0, Day 28, M+F combined, read-out: t1/2 Median (converted)",18.7 h
same,AUC(0-t),"8 mg/kg/day, 8 mg/kg/day PO, DFMO 50 mg/kg/day, Day 28, M+F combined, read-out: AUC0-24 hr Mean",2120 ng·h/mL
same,AUC(0-t),"8 mg/kg/day, 8 mg/kg/day PO, DFMO 50 mg/kg/day, Day 28, M+F combined, read-out: AUC0-24 hr Median",2250 ng·h/mL
same,AUC(0-t),"8 mg/kg/day, 8 mg/kg/day PO, DFMO 50 mg/kg/day, Day 28, M+F combined, read-out: AUC0-t Mean",3010 ng·h/mL
same,AUC(0-t),"8 mg/kg/day, 8 mg/kg/day PO, DFMO 50 mg/kg/day, Day 28, M+F combined, read-out: AUC0-t Median",2970 ng·h/mL
same,AUC(0-inf),"8 mg/kg/day, 8 mg/kg/day PO, DFMO 50 mg/kg/day, Day 28, M+F combined, read-out: AUC0-∞ Mean",3070 ng·h/mL
same,AUC(0-inf),"8 mg/kg/day, 8 mg/kg/day PO, DFMO 50 mg/kg/day, Day 28, M+F combined, read-out: AUC0-∞ Median",3020 ng·h/mL
same,Cmax,"8 mg/kg/day, 8 mg/kg/day PO, DFMO 50 mg/kg/day, Day 28, M+F combined, read-out: Cmax Mean",152 ng/mL
same,Cmax,"8 mg/kg/day, 8 mg/kg/day PO, DFMO 50 mg/kg/day, Day 28, M+F combined, read-out: Cmax Median",171 ng/mL
same,Tmax,"8 mg/kg/day, 8 mg/kg/day PO, DFMO 50 mg/kg/day, Day 28, M+F combined, read-out: Tmax Mean",6.67 h
same,Tmax,"8 mg/kg/day, 8 mg/kg/day PO, DFMO 50 mg/kg/day, Day 28, M+F combined, read-out: Tmax Median",6 h
same,half-life,"8 mg/kg/day, 8 mg/kg/day PO, DFMO 50 mg/kg/day, Day 28, M+F combined, read-out: t1/2 Mean (converted)",18 h
same,half-life,"8 mg/kg/day, 8 mg/kg/day PO, DFMO 50 mg/kg/day, Day 28, M+F combined, read-out: t1/2 Median (converted)",20.3 h
same,AUC(0-t),"8 mg/kg/day, 8 mg/kg/day PO, DFMO 200 mg/kg/day, Day 1, M+F combined, read-out: AUC0-24 hr Mean",1470 ng·h/mL
same,AUC(0-t),"8 mg/kg/day, 8 mg/kg/day PO, DFMO 200 mg/kg/day, Day 1, M+F combined, read-out: AUC0-24 hr Median",1390 ng·h/mL
same,Cmax,"8 mg/kg/day, 8 mg/kg/day PO, DFMO 200 mg/kg/day, Day 1, M+F combined, read-out: Cmax Mean",101 ng/mL
same,Cmax,"8 mg/kg/day, 8 mg/kg/day PO, DFMO 200 mg/kg/day, Day 1, M+F combined, read-out: Cmax Median",86.5 ng/mL
same,Tmax,"8 mg/kg/day, 8 mg/kg/day PO, DFMO 200 mg/kg/day, Day 1, M+F combined, read-out: Tmax Mean",9 h
same,Tmax,"8 mg/kg/day, 8 mg/kg/day PO, DFMO 200 mg/kg/day, Day 1, M+F combined, read-out: Tmax Median",9 h
same,AUC(0-t),"16 mg/kg/day, 16 mg/kg/day PO, DFMO 0, Day 1, M+F combined, read-out: AUC0-24 hr Mean",2500 ng·h/mL
same,AUC(0-t),"16 mg/kg/day, 16 mg/kg/day PO, DFMO 0, Day 1, M+F combined, read-out: AUC0-24 hr Median",1750 ng·h/mL
same,Cmax,"16 mg/kg/day, 16 mg/kg/day PO, DFMO 0, Day 1, M+F combined, read-out: Cmax Mean",155 ng/mL
same,Cmax,"16 mg/kg/day, 16 mg/kg/day PO, DFMO 0, Day 1, M+F combined, read-out: Cmax Median",113 ng/mL
same,Tmax,"16 mg/kg/day, 16 mg/kg/day PO, DFMO 0, Day 1, M+F combined, read-out: Tmax Mean",6 h
same,Tmax,"16 mg/kg/day, 16 mg/kg/day PO, DFMO 0, Day 1, M+F combined, read-out: Tmax Median",6 h
same,AUC(0-t),"16 mg/kg/day, 16 mg/kg/day PO, DFMO 0, Day 28, M+F combined, read-out: AUC0-24 hr Mean",4590 ng·h/mL
same,AUC(0-t),"16 mg/kg/day, 16 mg/kg/day PO, DFMO 0, Day 28, M+F combined, read-out: AUC0-24 hr Median",4890 ng·h/mL
same,AUC(0-t),"16 mg/kg/day, 16 mg/kg/day PO, DFMO 0, Day 28, M+F combined, read-out: AUC0-t Mean",7970 ng·h/mL
